In publication PMC3169406, “Structure of a cyclin-dependent kinase from Giardia lamblia” (Acta Crystallographica Section F: Structural Biology and …, 2011):

Biological target: T1, GlCDK (cyclin-dependent kinase from G. lamblia) (Giardia duodenalis, UniProt A8BZ95)
T1 construct: gene GL50803_008037; monomer in asymmetric unit; residues Ser11-Pro308 observed
T1 sequence (A8BZ95 1-308): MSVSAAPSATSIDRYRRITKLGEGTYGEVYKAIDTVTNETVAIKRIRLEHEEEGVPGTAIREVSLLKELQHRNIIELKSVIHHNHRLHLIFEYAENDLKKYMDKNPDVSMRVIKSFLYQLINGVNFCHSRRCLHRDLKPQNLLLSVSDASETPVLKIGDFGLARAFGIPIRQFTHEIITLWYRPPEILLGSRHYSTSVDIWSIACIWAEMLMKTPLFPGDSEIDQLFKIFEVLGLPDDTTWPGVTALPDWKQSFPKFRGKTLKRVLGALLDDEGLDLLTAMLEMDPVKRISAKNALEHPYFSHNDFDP
Assay: X-ray crystal structure, […] A, crystal soak
Conditions: 1 mM AMP, 1 mM MgCl2, overnight soak; 200 mM sodium/potassium tartrate, 100 mM Bis-Tris propane, 25% PEG 3350; no cyclin; ATP-binding site

## Nc1ncnc2c1ncn2[C@@H]1O[C@H](COP(=O)(O)O)[C@@H](O)[C@H]1O [AMP, adenosine monophosphate]
  X-ray crystal structure, 2.0 A, crystal soak: Good OMIT density was observed for one AMP molecule
